Here are results for ten molecules from US10709709B2, “Substituted carbonucleoside derivatives useful as anticancer agents” (Pfizer Inc., priority 2016, dated 2020).

Test [1] relates to A549 lung adenocarcinoma cells. The test can be described thus: A549 proliferation assay (Cell Titer Glo). Format: cell-based. The following applies: Homo sapiens, A549, 168 h, 7 days with compound, cell viability by Cell Titer Glo (ATP). The essentials:
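A549 cells plated overnight, then treated with nine-point 3.3-fold dilutions (final top 10 μM, 0.2% DMSO) for 7 days at 37 °C, with media and compound refreshed on day 4. Viability measured as ATP by Cell Titer Glo luminescence; IC50 from 4-parameter fit normalized to DMSO control.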

Test [2] concerns the target PRMT5/MEP50 protein complex (Homo sapiens (Human), UniProt O14744). The test can be described thus: PRMT5 biochemical assay (3H-SAM methylation of H4(1-21) peptide, filter plate scintillation). The following applies: 10 nM PRMT5/MEP50 complex, 200 nM H4(1-21) peptide, 1 uM SAM, 25 minute incubation at room temperature. The essentials:
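Scintillation read-out: after 25 min at room temperature and a TCA stop, tritiated H4(1-21) product (peptide 200 nM) is caught on a filter plate. Reaction holds 10 nM PRMT5/MEP50 and 1 uM 3H-labelled plus cold SAM in 50 mM Tris pH 8.5 with MgCl2, EDTA and TCEP. IC50 values come from a 4-parameter dose-response fit.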

SMILES strings stand for the structures.

What is called IC50 is the midpoint of a concentration-inhibition curve.

PRMT5/MEP50 protein complex, sequence (O14744 other isoform, or with tags, fused parts or gaps): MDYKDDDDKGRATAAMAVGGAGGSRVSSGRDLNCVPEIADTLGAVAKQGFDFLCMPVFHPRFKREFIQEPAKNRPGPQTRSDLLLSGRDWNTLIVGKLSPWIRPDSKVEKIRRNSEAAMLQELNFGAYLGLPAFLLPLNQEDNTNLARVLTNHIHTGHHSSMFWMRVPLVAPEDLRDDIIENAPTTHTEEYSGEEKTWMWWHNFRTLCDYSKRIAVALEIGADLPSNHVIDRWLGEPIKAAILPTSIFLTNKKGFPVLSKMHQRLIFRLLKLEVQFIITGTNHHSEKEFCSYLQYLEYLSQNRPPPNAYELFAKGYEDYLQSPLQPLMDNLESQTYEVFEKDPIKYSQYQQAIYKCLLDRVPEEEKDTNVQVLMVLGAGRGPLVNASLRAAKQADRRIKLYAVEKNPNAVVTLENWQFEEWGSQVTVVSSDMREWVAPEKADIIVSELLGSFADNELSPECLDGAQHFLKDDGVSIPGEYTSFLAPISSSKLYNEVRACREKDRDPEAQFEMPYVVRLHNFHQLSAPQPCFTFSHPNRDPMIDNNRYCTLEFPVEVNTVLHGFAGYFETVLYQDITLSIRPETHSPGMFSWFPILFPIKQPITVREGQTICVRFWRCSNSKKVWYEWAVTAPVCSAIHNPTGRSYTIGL
PRMT5/MEP50 protein complex, sequence (Q9BQA1 whole entry partner): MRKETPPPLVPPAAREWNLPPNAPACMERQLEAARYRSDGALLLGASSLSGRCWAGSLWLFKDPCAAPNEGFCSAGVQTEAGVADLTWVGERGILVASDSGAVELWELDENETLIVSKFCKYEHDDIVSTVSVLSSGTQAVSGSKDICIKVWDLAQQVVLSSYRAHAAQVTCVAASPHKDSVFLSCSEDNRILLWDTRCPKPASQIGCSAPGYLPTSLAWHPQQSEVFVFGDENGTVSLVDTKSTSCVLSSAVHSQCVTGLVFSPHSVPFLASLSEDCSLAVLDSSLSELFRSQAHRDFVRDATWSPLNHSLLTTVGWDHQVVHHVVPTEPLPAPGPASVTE

For `Cc1nc(N)c2c(F)cn([C@@H]3C[C@H](Oc4ccc(F)c5c4CNCC5)[C@@H](O)[C@H]3O)c2n1` [Example 126, (1S,2S,3R,5S)-3-(4-amino-5-fluoro-2-methyl-7H-pyrrolo[2,3-d]pyrimidin-7-yl)-5-((5-fluoro-1,2,3,4-tetrahydroisoquinolin-8-yl)oxy)cyclopentane-1,2-diol], the IC50 in test [1] came out at 0.498 µM; in test [2], 0.001 µM.

Consider `Nc1ncnc2c1c(Cl)cn2[C@@H]1C[C@H](Oc2cc(F)c(F)c3c2CNCC3)[C@@H](O)[C@H]1O` [Example 128, (1S,2S,3R,5S)-3-(4-amino-5-chloro-7H-pyrrolo[2,3-d]pyrimidin-7-yl)-5-((5,6-difluoro-1,2,3,4-tetrahydroisoquinolin-8-yl)oxy)cyclopentane-1,2-diol], for which the IC50 in test [1] came to 0.597 µM; in test [2], 0.001 µM.

As for `Cc1cc2c(c(O[C@H]3C[C@@H](n4cc(Cl)c5c(N)ncnc54)[C@H](O)[C@@H]3O)c1)CNCC2` [Example 129, (1S,2S,3R,5S)-3-(4-amino-5-chloro-7H-pyrrolo[2,3-d]pyrimidin-7-yl)-5-((6-methyl-1,2,3,4-tetrahydroisoquinolin-8-yl)oxy)cyclopentane-1,2-diol], the IC50 is 1.04 µM in test [1] and 0.001 µM in test [2].

With `Nc1ncnc2c1c(Cl)cn2[C@@H]1C[C@H](Oc2cc(Cl)cc3c2CNCC3)[C@@H](O)[C@H]1O` [Example 130, (1S,2S,3R,5S)-3-(4-amino-5-chloro-7H-pyrrolo[2,3-d]pyrimidin-7-yl)-5-((6-chloro-1,2,3,4-tetrahydroisoquinolin-8-yl)oxy)cyclopentane-1,2-diol], the half-maximal inhibitory concentration (IC50) came to 0.983 µM in test [1] and 0.001 µM in test [2].

For the molecule `Cc1ncc2c(F)cn([C@@H]3C[C@H](Oc4ccc(F)c5c4CNCC5)[C@@H](O)[C@H]3O)c2n1` [Example 132, (1S,2S,3S,5R)-3-((5-fluoro-1,2,3,4-tetrahydroisoquinolin-8-yl)oxy)-5-(5-fluoro-2-methyl-7H-pyrrolo[2,3-d]pyrimidin-7-yl)cyclopentane-1,2-diol], the IC50 turned out to be 2.75 µM in test [1] and 0.002 µM in test [2].

For `Nc1ncnc2c1c(Cl)cn2[C@@H]1C[C@H](Oc2ccc(F)c3c2CNCC3)[C@@H](O)[C@H]1O` [Example 133, (1S,2S,3R,5S)-3-(4-amino-5-chloro-7H-pyrrolo[2,3-d]pyrimidin-7-yl)-5-((5-fluoro-1,2,3,4-tetrahydroisoquinolin-8-yl)oxy)cyclopentane-1,2-diol], the 50% inhibitory concentration (IC50) in test [1] worked out at 0.443 µM; in test [2], 0.001 µM.

Consider `Nc1ncnc2c1c(Br)cn2[C@@H]1C[C@H](Oc2ccc(F)c3c2CNCC3)[C@@H](O)[C@H]1O` [Example 134, (1S,2S,3R,5S)-3-(4-amino-5-bromo-7H-pyrrolo[2,3-d]pyrimidin-7-yl)-5-((5-fluoro-1,2,3,4-tetrahydroisoquinolin-8-yl)oxy)cyclopentane-1,2-diol], for which the IC50 in test [1] amounted to 0.64 µM; in test [2], 0.001 µM.

Turning to `Cc1ncnc2c1ccn2[C@@H]1C[C@H](Oc2ccc(F)cc2[C@H](C)N)[C@@H](O)[C@H]1O` [Example 138, (1S,2S,3S,5R)-3-(2-((S)-1-aminoethyl)-4-fluorophenoxy)-5-(4-methyl-7H-pyrrolo[2,3-d]pyrimidin-7-yl)cyclopentane-1,2-diol], the values for the half-maximal inhibitory concentration (IC50) in test [1] and in test [2] were 1.48 µM and 0.002 µM, respectively.

As to `Cc1ncnc2c1ccn2[C@@H]1C[C@H](Oc2cc(Cl)c(F)cc2[C@H](C)N)[C@@H](O)[C@H]1O` [Example 139, (1S,2S,3S,5R)-3-(2-((S)-1-aminoethyl)-5-chloro-4-fluorophenoxy)-5-(4-methyl-7H-pyrrolo[2,3-d]pyrimidin-7-yl)cyclopentane-1,2-diol], the IC50 in test [1] came to 0.637 µM; in test [2] it was 0.001 µM.

As for `Cc1ncnc2c1ccn2[C@@H]1C[C@H](Oc2cc(Cl)c(F)cc2[C@@H](C)N)[C@@H](O)[C@H]1O` [Example 140, (1S,2S,3S,5R)-3-(2-((R)-1-aminoethyl)-5-chloro-4-fluorophenoxy)-5-(4-methyl-7H-pyrrolo[2,3-d]pyrimidin-7-yl)cyclopentane-1,2-diol], the figures for the concentration for half-maximal inhibition (IC50) in test [1] and in test [2] were 2.38 µM and 0.017 µM, respectively.
